{"source": "paper PMC4604091", "about": "“Two homolog wheat Glycogen Synthase Kinase 3/SHAGGY - like kinases are involved in brassinosteroid signaling” (BMC Plant Biology, 2015)", "key": {"[1]": {"biological_target": "T1, TaGSK1 (Triticum aestivum, UniProt Q8LK43)", "T1 construct": "full length, N-terminal GST fusion, expressed in E. coli, glutathione Sepharose purified, tag kept", "T1 sequence (Q8LK43 1-381)": "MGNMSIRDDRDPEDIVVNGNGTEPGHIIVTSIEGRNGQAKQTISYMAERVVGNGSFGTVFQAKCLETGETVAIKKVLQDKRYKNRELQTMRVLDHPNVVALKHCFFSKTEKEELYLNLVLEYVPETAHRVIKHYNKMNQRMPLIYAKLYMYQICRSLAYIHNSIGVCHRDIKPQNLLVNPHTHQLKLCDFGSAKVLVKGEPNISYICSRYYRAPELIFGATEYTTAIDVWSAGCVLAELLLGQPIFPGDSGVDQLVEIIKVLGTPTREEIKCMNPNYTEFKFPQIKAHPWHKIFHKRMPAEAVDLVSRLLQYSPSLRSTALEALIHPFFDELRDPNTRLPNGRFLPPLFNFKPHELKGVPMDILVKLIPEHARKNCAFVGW", "test": "in vitro kinase assay, […] phosphorylation of myelin basic protein, autoradiography", "assay_type": "biochemical", "conditions": "read-out: % residual activity at 15 μM"}, "[2]": {"biological_target": "T2, BIN2 (Arabidopsis thaliana, UniProt Q39011)", "T2 construct": "gene ASK7; full length, N-terminal GST fusion, expressed in E. coli, glutathione Sepharose purified, tag kept", "T2 sequence (Q39011 1-380)": "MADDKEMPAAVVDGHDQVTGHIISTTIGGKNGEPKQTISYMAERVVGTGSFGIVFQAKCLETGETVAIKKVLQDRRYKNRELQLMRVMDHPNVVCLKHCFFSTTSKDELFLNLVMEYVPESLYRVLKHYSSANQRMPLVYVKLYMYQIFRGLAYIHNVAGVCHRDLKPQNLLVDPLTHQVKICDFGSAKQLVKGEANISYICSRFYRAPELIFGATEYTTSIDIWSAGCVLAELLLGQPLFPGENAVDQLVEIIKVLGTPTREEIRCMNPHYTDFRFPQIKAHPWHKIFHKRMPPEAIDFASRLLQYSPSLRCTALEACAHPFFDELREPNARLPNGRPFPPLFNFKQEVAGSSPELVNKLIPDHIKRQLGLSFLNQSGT", "test": "in vitro kinase assay, […] phosphorylation of myelin basic protein, autoradiography", "assay_type": "biochemical", "conditions": "read-out: % residual activity at 15 μM"}}, "data": [{"smiles": "O=C(O)CCC(=O)Nc1ccc(Br)cn1", "note": "[Bikinin, 4-[(5-bromo-2-pyridinyl)amino]-4-oxobutanoic acid]", "values": [{"measurement": "remaining activity at 15 µM", "setting": "[1]", "value": "~30", "unit": "%"}, {"measurement": "remaining activity at 15 µM", "setting": "[2]", "value": "< 5", "unit": "%"}]}]}
